Results reported in publication PMC6175823, “Identification of novel acetylcholinesterase inhibitors designed by pharmacophore-based virtual screening, molecular docking and bioassay” (Scientific Reports, 2018).
“Also recorded” adds a separate entry of the source.

Tests used:
[1] = target: T1, horse butyrylcholinesterase (Equus caballus, UniProt P81908); assay: biochemical; type: biochemical; conditions: for IC50: modified Ellman's method, horse BuChE, read-out: bAchE IC50; for effect against BchE: result in words
T1 construct: purchased Sigma (St. Louis, MO)
T1 sequence (P81908 whole entry): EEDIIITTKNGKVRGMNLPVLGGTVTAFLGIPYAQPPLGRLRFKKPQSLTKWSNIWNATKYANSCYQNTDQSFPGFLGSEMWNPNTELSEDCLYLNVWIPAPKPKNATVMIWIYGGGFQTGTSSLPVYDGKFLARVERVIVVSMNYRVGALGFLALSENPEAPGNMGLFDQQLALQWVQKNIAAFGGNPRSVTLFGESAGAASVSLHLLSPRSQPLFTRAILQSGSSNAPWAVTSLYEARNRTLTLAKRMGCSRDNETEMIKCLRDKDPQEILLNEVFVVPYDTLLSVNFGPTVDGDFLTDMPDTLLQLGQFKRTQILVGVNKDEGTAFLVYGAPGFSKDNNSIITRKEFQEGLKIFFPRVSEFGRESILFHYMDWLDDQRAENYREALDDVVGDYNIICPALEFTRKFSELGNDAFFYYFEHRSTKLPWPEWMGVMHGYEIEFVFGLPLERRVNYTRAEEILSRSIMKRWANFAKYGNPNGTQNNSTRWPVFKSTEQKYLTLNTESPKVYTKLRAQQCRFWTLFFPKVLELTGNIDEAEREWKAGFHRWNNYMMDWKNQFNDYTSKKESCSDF
From the text: Acetylcholinesterase from electrophorus electricus (electric eel), horse butyrylcholinesterase, Acetylcholine iodide, S-butyrylthiocholine chloride and 5,5′-dithio-bis-nitrobenzoic acid (DTNB) were purchased from the Sigma (St. Louis, MO) while bovine serum albumin (BSA) purchased from Research and Diagnostic Technology (RDT). Buffers and other chemicals were purchases from pure chemicals as a pure experimental grade. All the reagents and experimental conditions were same as described by previous reports. […] Acetylcholinesterase and butyrylcholinesterase inhibition was performed spectrometrically using acetylthiocholine and butyrylthiocholine as a substrate. Experiment was performed with slight modification in the method described by Ellman et al.[78]. Then, […] sodium phosphate buffer (pH 8.0), enzyme preparation and different concentration of test compound was mixed and incubated for 30 min followed by the addition of DTNB and the reactions was initiated by adding respective enzyme substrate like acetylthiocholine iodide, butyrylthiocholine chloride for Acetylcholinesterase and butyrylcholinesterase inhibition assay respectively. The hydrolysis of acetylthiocholine or butyrylthiocholineyield a dark yellow 5-thio-2-nitrobenzoate anion because of the reaction between DTNB with enzyme and enzyme substrate. […] Solvent used for compound dilution was used for the negative control. Percentage inhibition was calculated taking negative control as 100%.

[2] = target: T2, Acetylcholinesterase from electrophorus electricus (electric eel) (Electrophorus electricus, UniProt O42275); assay: biochemical; conditions: modified Ellman's method, eeAChE; read-out: AchE IC50
T2 construct: purchased Sigma (St. Louis, MO)
T2 sequence (O42275 24-633): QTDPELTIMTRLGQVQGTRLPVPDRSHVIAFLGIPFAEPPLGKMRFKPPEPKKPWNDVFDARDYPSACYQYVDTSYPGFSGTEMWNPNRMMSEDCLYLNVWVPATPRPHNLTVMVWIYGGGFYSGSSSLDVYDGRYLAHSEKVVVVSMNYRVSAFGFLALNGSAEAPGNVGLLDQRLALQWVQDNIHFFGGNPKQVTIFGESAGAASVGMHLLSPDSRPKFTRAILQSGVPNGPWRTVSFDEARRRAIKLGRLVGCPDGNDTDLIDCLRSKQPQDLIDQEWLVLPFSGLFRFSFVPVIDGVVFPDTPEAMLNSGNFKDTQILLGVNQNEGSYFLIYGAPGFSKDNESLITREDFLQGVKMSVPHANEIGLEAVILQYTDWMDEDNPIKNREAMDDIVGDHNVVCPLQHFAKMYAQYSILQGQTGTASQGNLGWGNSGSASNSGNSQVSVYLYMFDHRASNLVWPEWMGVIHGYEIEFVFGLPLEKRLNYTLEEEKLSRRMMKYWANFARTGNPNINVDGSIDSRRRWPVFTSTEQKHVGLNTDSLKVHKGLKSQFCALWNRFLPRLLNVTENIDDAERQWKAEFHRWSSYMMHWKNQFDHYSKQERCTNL
From the text: Acetylcholinesterase from electrophorus electricus (electric eel), horse butyrylcholinesterase, Acetylcholine iodide, S-butyrylthiocholine chloride and 5,5′-dithio-bis-nitrobenzoic acid (DTNB) were purchased from the Sigma (St. Louis, MO) while bovine serum albumin (BSA) purchased from Research and Diagnostic Technology (RDT). Buffers and other chemicals were purchases from pure chemicals as a pure experimental grade. All the reagents and experimental conditions were same as described by previous reports. […] Acetylcholinesterase and butyrylcholinesterase inhibition was performed spectrometrically using acetylthiocholine and butyrylthiocholine as a substrate. Experiment was performed with slight modification in the method described by Ellman et al.[78]. Then, […] sodium phosphate buffer (pH 8.0), enzyme preparation and different concentration of test compound was mixed and incubated for 30 min followed by the addition of DTNB and the reactions was initiated by adding respective enzyme substrate like acetylthiocholine iodide, butyrylthiocholine chloride for Acetylcholinesterase and butyrylcholinesterase inhibition assay respectively. The hydrolysis of acetylthiocholine or butyrylthiocholineyield a dark yellow 5-thio-2-nitrobenzoate anion because of the reaction between DTNB with enzyme and enzyme substrate. […] Percentage inhibition was calculated taking negative control as 100%.

AChE = conditions: ChEMBL dataset, Ellman assay ref 43; cited from earlier work
bAchE = conditions: read-out: bAchE IC50; Tacrine (Ellman method); source not given; cited from earlier work

| SMILES | Exp. pIC50 (AChE) | further results |
| --- | --- | --- |
| COc1ccccc1OCCN(CC(=O)CC(O)c1cccc(-c2ccccc2)c1)Cc1ccccc1 (stereo not drawn) [5c, 4-([1,1′-biphenyl]-3-yl)-1-(benzyl(2-(2-methoxyphenoxy)ethyl)amino)-4-hydroxybutan-2-one] |  | IC50 [1]: > 500 µM; effect against BchE [1]: without inhibiting; also recorded: did not showed the effect; IC50 [2]: 58.3 µM |
| COc1ccccc1OCCN(Cc1ccccc1)CC(O)CC(O)c1cccc2[nH]c3ccccc3c12 (stereo not drawn) [6a, 4-(benzyl(2-(2-methoxyphenoxy)ethyl)amino)-1-(9H-carbazol-4-yl)butane-1,3-diol] |  | IC50 [1]: > 500 µM; effect against BchE [1]: without inhibiting; also recorded: did not showed the effect; IC50 [2]: 66 µM |
| O=C1c2ccccc2C(=O)N1CCC1CCN(Cc2ccccc2)CC1 [CHEMB L106891] | 7.097 |  |
| O=C(CCC1CCN(Cc2ccccc2)CC1)c1ccc2c(c1)NCCC2 [CHEMBL73593] | 6.785 |  |
| O=C(CCC1CCN(Cc2ccccc2)CC1)c1ccc2c(c1)CCN2 [CHEMBL75110] | 7.699 |  |
| CN1CCCc2ccc(C(=O)CCC3CCN(Cc4ccccc4)CC3)cc21 [CHEMBL76470] | 7.444 |  |
| N#Cc1ccc2c(CCC3CCN(Cc4ccccc4)CC3)noc2c1 [CHEMBL92775] | 6.996 |  |
| Cc1cc(-c2ccccc2)n[nH]c1=NCCC1CCN(Cc2ccccc2)CC1 [CHEMBL94054] | 6.495 |  |
| O=C1Cc2c(ccc3c(CCC4CCN(Cc5ccccc5)CC4)noc23)N1 [CHEMBL95020] | 8.444 |  |
| O=C1c2ccc([N+](=O)[O-])cc2C(=O)N1CCC1CCN(Cc2ccccc2)CC1 [CHEMBL105874] | 7.903 |  |
| O=C(c1ccc([N+](=O)[O-])cc1)N(CCC1CCN(Cc2ccccc2)CC1)c1ccccc1 [CHEMBL126354] | 8.268 |  |
| COc1cccc(N(CCC2CCN(Cc3ccccc3)CC2)C(C)=O)c1 [CHEMBL127527] | 7.337 |  |
| O=C(Nc1ccc2c(c1)C(=O)N(CCC1CCN(Cc3ccccc3)CC1)C2=O)c1ccccc1 [CHEMBL138107] | 8.921 |  |
| Nc1cccc2c1C(=O)N(CCC1CCN(Cc3ccccc3)CC1)C2=O [CHEMBL138442] | 7.959 |  |
| O=c1[nH]c2cc(Cl)ccc2c(=O)n1CCC1CCN(Cc2ccccc2)CC1 [CHEMBL138552] | 8.347 |  |
| O=C1c2cccnc2C(=O)N1CCC1CCN(Cc2ccccc2)CC1 [CHEMBL140106] | 7.886 |  |
| O=c1c2ccccc2ncn1CCC1CCN(Cc2ccccc2)CC1 [CHEMBL140328] | 5.921 |  |
| O=C(c1ccc(F)cc1)N(CCC1CCN(Cc2ccccc2)CC1)c1ccccc1 [CHEMBL140737] | 7.745 |  |
| COc1ccc2c(c1)C(=O)N(CCC1CCN(Cc3ccccc3)CC1)C2=O [CHEMBL140770] | 8.097 |  |
| O=C1Cc2ccccc2CN1CCC1CCN(Cc2ccccc2)CC1 [CHEMBL140990] | 7.77 |  |
| O=C(c1ccccc1)c1ccc2c(c1)C(=O)N(CCC1CCN(Cc3ccccc3)CC1)C2=O [CHEMBL140999] | 8.62 |  |
| O=C1c2cccc([N+](=O)[O-])c2C(=O)N1CCC1CCN(Cc2ccccc2)CC1 [CHEMBL141001] | 8.046 |  |
| O=C1Cc2ccccc2C(=O)N1CCC1CCN(Cc2ccccc2)CC1 [CHEMBL141042] | 7.638 |  |

| SMILES | Exp. pIC50 (AChE) | further results |
| --- | --- | --- |
| CC(=O)N(CCC1CCN(Cc2ccccc2)CC1)c1cccc(F)c1 [CHEMBL141167] | 7.187 |  |
| O=c1c2ccccc2ccn1CCC1CCN(Cc2ccccc2)CC1 [CHEMBL141203] | 5.959 |  |
| O=C1Nc2ccccc2CN1CCC1CCN(Cc2ccccc2)CC1 [CHEMBL141276] | 7.886 |  |
| O=C(Nc1cccc2c1C(=O)N(CCC1CCN(Cc3ccccc3)CC1)C2=O)c1ccccc1 [CHEMBL141622] | 6.469 |  |
| COc1ccc(N(CCC2CCN(Cc3ccccc3)CC2)C(C)=O)cc1 [CHEMBL141801] | 6.155 |  |
| O=C1c2ccccc2NCN1CCC1CCN(Cc2ccccc2)CC1 [CHEMBL141810] | 6.097 |  |
| CCC(=O)N(CCC1CCN(Cc2ccccc2)CC1)c1ccccc1 [CHEMBL141853] | 6.081 |  |
| COc1ccc(C(=O)N(CCC2CCN(Cc3ccccc3)CC2)c2ccccc2)cc1 [CHEMBL141873] | 6.229 |  |
| O=C1c2ccccc2CCN1CCC1CCN(Cc2ccccc2)CC1 [CHEMBL142014] | 6 |  |
| O=C(CCC1CCN(Cc2ccccc2Cl)CC1)c1ccc2c(c1)CCN2 [CHEMBL306175] | 7.119 |  |
| Cc1cccc(CN2CCC(CCC(=O)c3ccc4c(c3)CCN4)CC2)c1 [CHEMBL306179] | 7.301 |  |
| COc1ccccc1CN1CCC(CCC(=O)c2ccc3c(c2)CCN3)CC1 [CHEMBL306776] | 6.09 |  |
| CCCN1CCCCc2ccc(C(=O)CCC3CCN(Cc4ccccc4)CC3)cc21 [CHEMBL307513] | 5.876 |  |
| O=C(CCC1CCN(Cc2cccc([N+](=O)[O-])c2)CC1)c1ccc2c(c1)NCCCC2 [CHEMBL307832] | 6.409 |  |
| O=C(CCC1CCN(Cc2cccc(F)c2)CC1)c1ccc2c(c1)NCCCC2 [CHEMBL308093] | 6.839 |  |
| CCN1CCc2cc(C(=O)CCC3CCN(Cc4ccccc4)CC3)ccc21 [CHEMBL308793] | 7.959 |  |
| O=C(CCC1CCN(Cc2cccc(F)c2)CC1)c1ccc2c(c1)CCN2 [CHEMBL308807] | 7.796 |  |
| COc1ccccc1CN1CCC(CCC(=O)c2ccc3c(c2)NCCCC3)CC1 [CHEMBL309173] | 5.576 |  |
| CCN1CCCCc2ccc(C(=O)CCC3CCN(Cc4ccccc4)CC3)cc21 [CHEMBL310467] | 6.425 |  |
| CN1CCc2cc(C(=O)CCC3CCN(Cc4ccccc4)CC3)ccc21 [CHEMBL311017] | 8 |  |
| O=C1Cc2cc3onc(CCC4CCN(Cc5ccccc5)CC4)c3cc2N1 [CHEMBL328468] | 9.022 |  |
| O=C1CCc2cc3c(CCC4CCN(Cc5ccccc5)CC4)noc3cc2N1 [CHEMBL329231] | 9.244 |  |
| Brc1ccc2c(CCC3CCN(Cc4ccccc4)CC3)noc2c1 [CHEMBL330004] | 7.301 |  |

| SMILES | Exp. pIC50 (AChE) | further results |
| --- | --- | --- |
| O=C1c2ccccc2CN1CCC1CCN(Cc2ccccc2)CC1 [CHEMBL333909] | 7.009 |  |
| O=C(c1ccncc1)N(CCC1CCN(Cc2ccccc2)CC1)c1ccccc1 [CHEMBL340621] | 7.194 |  |
| O=C1Cc2cc3c(CCC4CCN(Cc5ccccc5)CC4)noc3cc2N1 [CHEMBL359570] | 9.481 |  |
| O=C(CCC1CCN(Cc2cccc(Cl)c2)CC1)c1ccc2c(c1)NCCCC2 [CHEMBL420378] | 6.478 |  |
| Cc1ccc2onc(CCC3CCN(Cc4ccccc4)CC3)c2c1 [CHEMBL433379] | 8.108 |  |
| CC(=O)Nc1ccc2c(c1)C(=O)N(CCC1CCN(Cc3ccccc3)CC1)C2=O [CHEMBL433678] | 8.553 |  |
| O=C(CCC1CCN(Cc2ccccc2)CC1)c1ccc2c(c1)OCO2 [CHEMBL1082434] | 7.523 |  |
| CCn1c(C)nc2cc(C(=O)CCC3CCN(Cc4ccccc4)CC3)ccc21 [CHEMBL1082435] | 8.367 |  |
| O=C(CCC1CCN(Cc2ccccc2)CC1)c1ccc2[nH]c(-c3ccccc3)nc2c1 [CHEMBL1082436] | 7.481 |  |
| CN(CCCCCNc1ccc(-c2ccccc2)nn1)Cc1ccccc1 [CHEMBL1083057] | 6.131 |  |
| c1ccc(CN2CCC(Nc3ccc(-c4ccccc4)nn3)CC2)cc1 [CHEMBL1083058] | 4.187 |  |
| c1ccc(CN2CCC(CNc3ccc(-c4ccccc4)nn3)CC2)cc1 [CHEMBL1083367] | 4.252 |  |
| CN1CCCc2cc(C(=O)CCC3CCN(Cc4ccccc4)CC3)ccc21 [CHEMBL1083660] | 7.62 |  |
| O=C(CCC1CCN(Cc2ccccc2)CC1)c1ccc2c(c1)CCCN2 [CHEMBL1083661] | 7.268 |  |
| O=C(CCC1CCN(Cc2ccccc2)CC1)c1ccc2c(c1)CCCN2c1ccccc1 [CHEMBL1083662] | 7.268 |  |
| O=C(Nc1ccccc1)c1ccc2c(c1)C(=O)N(CCC1CCN(Cc3ccccc3)CC1)C2=O [CHEMBL1084256] | 8.658 |  |
| CN(CCCCNc1ccc(-c2ccccc2)nn1)Cc1ccccc1 [CHEMBL1084257] | 4.959 |  |
| Cc1nc2ccc(C(=O)CCC3CCN(Cc4ccccc4)CC3)cc2s1 [CHEMBL1084275] | 8.167 |  |
| Cc1nc2ccc(C(=O)CCC3CCN(Cc4ccccc4)CC3)cc2[nH]1 [CHEMBL1084790] | 7.921 |  |
| O=C(CCC1CCN(Cc2ccccc2)CC1)c1ccc2c(c1)CCN2c1ccccc1 [CHEMBL1085858] | 7.167 |  |
| CN(CCNc1ccc(-c2ccccc2)nn1)Cc1ccccc1 [CHEMBL1086185] | 3.77 |  |
| Nc1c2c(nc3ccccc13)CCCC2 [Tacrine] |  | IC50 (bAchE): 0.058 µM |
